The target of experiment [1] is T1, human EP4 (Homo sapiens, UniProt P35408). Briefly: In vitro antagonist activity in human whole blood (reversal of PGE2 inhibition of LPS-induced TNFα production). Format: cell-based. Set-up: Blood is collected from normal volunteer donors; from tissue; host or cells: human whole blood from volunteer donors. The conditions noted are these: LPS 10 μg/mL with 10 nM PGE2, geometric mean ± standard deviation, read-out: IC50 in human blood TNFα induction assay. The source says:
The inhibitory effects of PGE2 on LPS-induced TNFα production from macrophages/monocytes are believed to be mediated by EP4 receptors (See Murase, A., et al., Life Sciences, 82:226-232 (2008)). The ability of the compound of Example 1 to reverse the inhibitory effect of PGE2 on LPS-induced TNFα production in human whole blood is an indicia of functional activity.
Blood is collected from normal volunteer donors into sodium heparin vacutainer tubes. Donors have not taken NSAIDs or celecoxib within 48 hours or glucocorticoids within two weeks prior to the donation. All tubes/donor are pooled into 50 mL Falcon conical centrifuge tubes and 98 μL/well is distributed into 96-well tissue culture plates (Falcon 3072). […] TNFα levels in 2 μL plasma are quantified by a commercially available enzyme immunoassay (R&D Systems DY210), using Immulon 4 HBX plates (Thermo 3855) and 3,3′,5,5′ tetramethylbiphenyl-4,4′-diamine substrate (KPL 50-76-03). The plates are read at A450-A650 on a plate reader (Molecular Devices Versamax) using SOFTmaxPRO (v. 4.3.1) software. IC50s are calculated using Graphpad Prism (v. 4) nonlinear regression, with sigmoidal dose response curve fitting. Results are expressed as the geometric mean±standard deviation; n=number of independent determinations.

A further experiment deals with T2, rat EP4 (Rattus norvegicus, UniProt P43114).
T2 construct: expressed in transfected cells
T2 sequence (P43114 whole entry): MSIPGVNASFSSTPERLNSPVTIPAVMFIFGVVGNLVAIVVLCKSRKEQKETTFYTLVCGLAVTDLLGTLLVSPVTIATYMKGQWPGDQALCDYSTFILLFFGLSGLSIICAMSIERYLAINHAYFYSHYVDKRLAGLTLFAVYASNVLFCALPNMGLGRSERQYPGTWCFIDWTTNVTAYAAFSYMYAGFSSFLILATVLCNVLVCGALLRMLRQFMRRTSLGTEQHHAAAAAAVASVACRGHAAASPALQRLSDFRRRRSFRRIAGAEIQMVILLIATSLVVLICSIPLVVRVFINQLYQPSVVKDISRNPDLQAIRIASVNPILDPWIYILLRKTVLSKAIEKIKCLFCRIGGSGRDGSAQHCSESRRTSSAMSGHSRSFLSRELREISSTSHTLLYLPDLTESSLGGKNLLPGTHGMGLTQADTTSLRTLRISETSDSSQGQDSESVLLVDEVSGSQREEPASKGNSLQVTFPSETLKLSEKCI
Briefly: In vitro rat EP4 functional antagonist activity (cAMP HTRF). Format: cell-based. The conditions noted are these: HEK293 cells expressing rat EP4; PGE2 at EC80; n=1; read-out: IC50 measured at rat EP4 (cAMP). The protocol:
Rat EP4 cDNA (Genebank Accession# NM_03276) is cloned into pcDNA 3.1 vector and subsequently transfected in HEK293 cells for receptor expression. Rat EP4 stable clone is scaled up and then frozen down as cell bank for future compounds screening. To test EP4 antagonist compounds in rEP4 cells, thaw the frozen cells and then resuspend cells in cAMP assay buffer. The cAMP buffer is made by HBSS without Phenol Red (Hyclone, SH30268) supplemented with 20 mM HEPES (Hyclone, SH30237), 0.1% BSA (Gibco, 15260) and 125 μM IBMX (Sigma, 15879) (see e.g., Murase, A., et al., Life Sciences, 82:226-232 (2008)). The cells are plated into 96-well half area flat-bottom polystyrene black plates (Costar 3694). Compounds are serial diluted with DMSO to give 10-point concentration response curves. Then diluted compounds are added into cAMP assay buffer which contains PGE2 (Cayman 14010, in a concentration predetermined to produce an EC80) at ratio of DMSO/buffer at 1/100. The cells are treated with compounds in the presence of PGE2 (EC80 concentration) for 30 minutes at room temperature. The cAMP levels generated from the cells are quantified by a cAMP HTRF assay kit (Cisbio 62AM4PEC). The plates are read on an EnVision plate reader using HTRF optimized protocol (PerkinElmer). IC50s are calculated using Graphpad Prism (v. 4) nonlinear regression, sigmoidal dose response curve fitting.
A general note: TR-FRET usually uses a lanthanide donor and a delayed reading to cut background.

Experiment [2] addresses T1, human EP4. The experiment is described as follows: In vitro human EP4 functional antagonist activity (inhibition of PGE2-stimulated cAMP production, HTRF). The experiment is classed as cell-based. Set-up: expressed in transfected cells. To be noted: HEK293 cells stably expressing human EP4; PGE2 at EC80 (0.188 nM); read-out: IC50 measured at human EP4 (inhibition of PGE2-stimulated cAMP production). The protocol: Assays are conducted in recombinant HEK293 cells stably expressing human EP4 receptor. The cell lines are maintained by culturing in DMEM with high glucose and pyridoxine hydrochloride (Invitrogen) supplemented with 10% fetal bovine serum (FBS), 1 mM sodium pyruvate, 10 mM HEPES, 500 μg/mL geneticin and 2 mM L-glutamine. Confluent cultures are grown at 37° C. in an atmosphere containing 5% CO2. Cells are harvested using 0.25% Trypsin-EDTA, suspended in freeze media (FBS with 6% DMSO) at 10^7 cells/mL and aliquots are stored in liquid nitrogen. Just before assay, cells are thawed in DMEM, centrifuged, and resuspended in cAMP buffer.
The inhibition of PGE2-stimulated cAMP production by EP4 antagonists is measured using HTRF (Cisbio catalogue #62AM4PEB). An aliquot equivalent to 4000 cells is incubated with 50 μL cAMP assay buffer containing PGE2 in a concentration predetermined to produce an EC80 (0.188 nM PGE2 from Sigma, catalog # P5640-10 mg) and EP4 antagonists at room temperature for 20 minutes. cAMP assay buffer contains 500 mL HBSS, 0.1% BSA, 20 mM HEPES and 200 μM IBMX (Sigma I5879). […] The HTRF signal is detected using an EnVision plate reader (Perkin-Elmer) to calculate the ratio of fluorescence at 665 nm to that at 620 nm. […]
For orientation: Changes in cAMP serve as a functional read-out for many G protein-coupled receptors.

For experiment [3], the target named is T1, human EP4. The experiment is described as follows: In vitro binding to human EP4 ([3H]-PGE2 displacement, HEK293 membranes). To be noted: [3H]-PGE2 binding, hEP4 membranes from recombinant HEK293 cells. Set-up: expressed in transfected cells. The protocol: (§1) hEP1 and hEP4 membranes are prepared from recombinant HEK293 cells stably expressing the human EP1 (Genbank accession number AY275470) or EP4 (Genbank accession number AY429109) receptors. hEP2 and hEP3 membranes are prepared from HEK293 cells transiently transfected with EP2 (Genbank accession number AY275471) or EP3 (isoform VI: Genbank accession number AY429108) receptor plasmids. Frozen cell pellets are homogenized in homogenization buffer using a Teflon/glass homogenizer. Membrane protein is aliquoted and quick frozen on dry ice prior to storage at −80° C. […]
(§2) Kd values for [3H]-PGE2 binding to each receptor are determined by saturation binding studies or homologous competition. […] Nonspecific binding is calculated by comparing binding in the presence and absence of 2 μM of PGE2. The membranes are harvested by filtration (TomTek harvester), washed 4 times with cold buffer (10 mM MES pH 6.0 with KOH, 10 mM MgCl2), dried in a 60° C. oven, and the radioactivity is quantified as counts per minute (CPM) using a TopCount® detector. Percent specific binding is calculated as the percent of the binding in the absence of any inhibitor, corrected for non-specific binding in the presence of 2 μM of PGE2. […]

The target of a further experiment is T3, human EP3 (Homo sapiens, UniProt P43115).
T3 construct: expressed in transfected cells; host or cells: HEK293 (transient), membranes
T3 sequence (P43115 1-374 isoform P43115-4): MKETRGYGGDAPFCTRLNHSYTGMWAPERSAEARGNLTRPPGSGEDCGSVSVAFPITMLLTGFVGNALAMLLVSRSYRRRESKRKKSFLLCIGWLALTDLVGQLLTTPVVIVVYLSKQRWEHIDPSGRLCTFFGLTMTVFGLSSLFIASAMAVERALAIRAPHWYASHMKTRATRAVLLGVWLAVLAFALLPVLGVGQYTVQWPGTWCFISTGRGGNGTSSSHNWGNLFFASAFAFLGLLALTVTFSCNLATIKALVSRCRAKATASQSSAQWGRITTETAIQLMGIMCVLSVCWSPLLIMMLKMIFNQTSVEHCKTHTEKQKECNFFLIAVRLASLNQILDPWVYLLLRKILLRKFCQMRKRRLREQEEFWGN
The experiment is described as follows: In vitro binding to human EP3 ([3H]-PGE2 displacement, HEK293 membranes). To be noted: [3H]-PGE2 binding, hEP3 (isoform VI) membranes from transiently transfected HEK293 cells. The protocol:
as §1, §2

For another experiment, the target named is T4, human EP1 (Homo sapiens, UniProt P34995).
T4 construct: expressed in transfected cells
T4 sequence (P34995 1-402): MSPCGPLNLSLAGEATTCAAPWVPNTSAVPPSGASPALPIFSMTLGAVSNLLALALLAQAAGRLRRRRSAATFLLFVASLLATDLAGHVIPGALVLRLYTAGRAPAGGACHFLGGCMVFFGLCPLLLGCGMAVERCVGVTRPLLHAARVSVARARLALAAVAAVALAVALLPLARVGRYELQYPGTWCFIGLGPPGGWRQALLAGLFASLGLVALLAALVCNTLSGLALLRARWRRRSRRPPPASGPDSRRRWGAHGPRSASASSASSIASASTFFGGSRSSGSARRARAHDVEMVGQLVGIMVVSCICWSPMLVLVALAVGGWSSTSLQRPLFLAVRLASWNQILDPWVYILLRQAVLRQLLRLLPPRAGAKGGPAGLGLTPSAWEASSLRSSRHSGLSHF
The experiment is described as follows: In vitro binding to human EP1 ([3H]-PGE2 displacement, HEK293 membranes). To be noted: [3H]-PGE2 binding, hEP1 membranes from recombinant HEK293 cells. The protocol:
as §1, §2

The next experiment deals with T5, human EP2 (Homo sapiens, UniProt P43116).
T5 construct: expressed in transfected cells; host or cells: HEK293 (transient), membranes
T5 sequence (P43116 whole entry): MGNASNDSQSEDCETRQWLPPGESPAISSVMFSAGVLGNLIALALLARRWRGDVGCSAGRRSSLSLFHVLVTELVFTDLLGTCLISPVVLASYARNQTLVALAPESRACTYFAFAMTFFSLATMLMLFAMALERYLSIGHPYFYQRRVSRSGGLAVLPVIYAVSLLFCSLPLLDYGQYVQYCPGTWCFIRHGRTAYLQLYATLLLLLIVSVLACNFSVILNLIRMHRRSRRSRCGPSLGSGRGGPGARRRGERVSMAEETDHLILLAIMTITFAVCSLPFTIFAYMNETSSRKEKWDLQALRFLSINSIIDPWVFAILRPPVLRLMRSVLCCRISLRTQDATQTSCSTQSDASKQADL
The experiment is described as follows: In vitro binding to human EP2 ([3H]-PGE2 displacement, HEK293 membranes). The conditions noted are these: [3H]-PGE2 binding, hEP2 membranes from transiently transfected HEK293 cells. The protocol:
as §1, §2

Each structure is given as a SMILES string. Counter-ions that a name gives are not always drawn.

T1 sequence (P35408 whole entry): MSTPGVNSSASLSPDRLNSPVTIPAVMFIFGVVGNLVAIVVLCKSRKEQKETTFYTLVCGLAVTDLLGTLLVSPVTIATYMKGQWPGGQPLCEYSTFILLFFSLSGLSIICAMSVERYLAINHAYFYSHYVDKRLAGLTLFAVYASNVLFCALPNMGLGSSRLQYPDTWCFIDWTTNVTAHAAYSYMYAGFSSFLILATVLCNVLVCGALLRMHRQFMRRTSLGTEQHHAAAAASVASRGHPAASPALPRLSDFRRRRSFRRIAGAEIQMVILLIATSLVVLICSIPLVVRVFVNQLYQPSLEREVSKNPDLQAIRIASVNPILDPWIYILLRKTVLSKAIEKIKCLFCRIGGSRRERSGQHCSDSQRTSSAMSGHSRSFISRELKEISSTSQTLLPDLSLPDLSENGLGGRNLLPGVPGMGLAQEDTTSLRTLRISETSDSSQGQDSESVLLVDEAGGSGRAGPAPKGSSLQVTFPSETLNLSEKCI

By IC50 is commonly meant the midpoint of a concentration-inhibition curve. For orientation: Ki means a measure of affinity in units of concentration, obtained from inhibition or displacement. With `C[C@H](NC(=O)[C@H]1Cc2ccccc2CN1CCOc1ccc(F)cc1)c1ccc(C(=O)O)cc1` [Example 2, 4-[(1S)-1-[[(3R)-2-(2-(4-fluorophenoxy)ethyl)-3,4-dihydro-1H-isoquinoline-3-carbonyl]amino]ethyl]benzoic acid hydrochloride], the IC50 stood at 61 ± 55 nM on human EP4 [1], 6.7 nM at rat EP4 and 0.45 ± 0.256 nM at human EP4 [2]. Also, the Ki on human EP4 [3] was 0.38 ± 0.142 nM; on human EP3 it was above 14600 nM; on human EP1 it was 4650 nM; on human EP2, 331 ± 72 nM.

`C[C@H](NC(=O)[C@H]1Cc2ccccc2CN1CCOc1ccccc1)c1ccc(C(=O)O)cc1` [Example 1, 4-[(1S)-1-[[(3R)-2-(2-phenoxyethyl)-3,4-dihydro-1H-isoquinoline-3-carbonyl]amino]ethyl]benzoic acid]: the IC50 on human EP4 [1] stood at 39 ± 21 nM; at rat EP4, 2 nM; at human EP4 [2], 0.752 ± 0.538 nM. The Ki is 0.403 ± 0.247 nM at human EP4 [3], above 14800 nM on human EP3, 7920 ± 5810 nM at human EP1 and 1320 ± 1780 nM at human EP2.

The values above are taken from patent US9371289B2, “Phenoxyethyl dihydro-1H-isoquinoline compounds” (Eli Lilly and Company, priority 2013, dated 2016).
